Measured values: publication PMC12675575, “A BRET biosensor for measuring uncompetitive engagement of PRMT5 complexes in cells” (Nature Communications, 2025)
“And” between values parts separate entries of the source, which are not always exact repeats. Equal values may be shown once.

Legend:
NL-PRMT5 = molecular target: T1, NL-PRMT5 (Homo sapiens, UniProt O14744); assay: CBH-002 affinity curve, HEK293, NL-PRMT5 fusion with empty carrier DNA (no WDR77); format: cell-based; design: unit not given here; conditions: Figure S2A NL-PRMT5, log([CBH-002])
T1 construct: host or cells: HEK293
T1 sequence (O14744 whole entry, the tested form may be a part): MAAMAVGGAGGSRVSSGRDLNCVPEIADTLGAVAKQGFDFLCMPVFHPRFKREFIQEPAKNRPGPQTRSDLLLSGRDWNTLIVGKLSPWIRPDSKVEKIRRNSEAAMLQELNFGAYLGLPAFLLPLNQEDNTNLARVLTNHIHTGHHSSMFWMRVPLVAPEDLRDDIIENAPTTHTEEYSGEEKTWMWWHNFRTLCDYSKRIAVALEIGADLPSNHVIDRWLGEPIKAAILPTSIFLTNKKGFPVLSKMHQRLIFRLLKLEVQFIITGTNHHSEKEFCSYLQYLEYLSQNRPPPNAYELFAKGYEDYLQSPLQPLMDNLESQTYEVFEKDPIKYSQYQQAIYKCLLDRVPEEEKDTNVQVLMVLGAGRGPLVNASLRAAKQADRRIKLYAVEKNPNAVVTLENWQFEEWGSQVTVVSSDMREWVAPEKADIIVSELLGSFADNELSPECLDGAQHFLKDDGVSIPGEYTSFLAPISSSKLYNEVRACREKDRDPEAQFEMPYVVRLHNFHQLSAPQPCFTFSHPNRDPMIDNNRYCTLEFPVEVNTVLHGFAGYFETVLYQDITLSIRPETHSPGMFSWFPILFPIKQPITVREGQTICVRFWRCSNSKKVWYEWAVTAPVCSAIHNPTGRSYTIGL
Experimental: (§1) HEK293 cells (ATCC) were cultured in DMEM (Thermo Fisher) + 10% (v/v) FBS (Seredigm), and HCT116 cells (Horizon Discovery, #PAR-034 and #R02-033) were cultured in McCoy’s 5A (Thermo Fisher) + 10% FBS, with incubation in a humidified, 37 °C/5% CO2 incubator. Cells were split 1–3 days prior to performing experiments and used at roughly 80% confluency. […] Cells were transfected according to the manufacturer’s protocol using FuGENE HD (Promega). NanoLuc fusion DNA was diluted into Transfection Carrier DNA (Promega) in Opti-MEM at a ratio of 1:9 (mass/mass), and FuGENE HD was added at a ratio of 1:3 (μg DNA:μL lipid). For experiments using WDR77, untagged WDR77 DNA (Promega) was used in place of Carrier DNA. Formed complexes were combined with cells resuspended to a density of 2 × 10^5 cells/mL in Opti-MEM + 1% FBS at a ratio of 1:20 (vol:vol). Cells were plated into a flask and incubated at 37 °C in a humidified 5% CO2 atmosphere for 18–24 h, before being lifted and seeded into 96-well non-binding surface-treated plates (Corning). Cells were seeded at a density of 2 × 10^5 cells/mL in Opti-MEM + 1% FBS in 100 μL (96-well). The BRET probe CBH-002 was prepared first as a 100× stock in 100% DMSO (Sigma) and then diluted to a 20× stock in NanoBRET Tracer Dilution buffer (Promega). Test compounds were prepared as 1000× stocks in 100% DMSO and diluted to 10× stocks in Opti-MEM to prepare working stocks. […] NanoBRET Complete 3x Substrate was prepared by combining Nano-Glo Substrate and Extracellular NanoLuc Inhibitor in Opti-MEM, according to the manufacturer’s protocol (Promega). NanoBRET Complete 3× Substrate was added to cells and plates were measured on either a PheraSTAR FSX equipped with 450 nm (donor) and 610 nm (acceptor) filters, or a GloMAX Discover equipped with 450/8 nm BP (donor) and 600 nm LP (acceptor) filters, using a 0.3 s integration time.
(§2) EC50 values were obtained by fitting the BRET probe and compound affinity curves to a sigmoidal four-parameter fit model in Graphpad Prism:1 Y=Ymin+Ymax−Ymin/1+10^LogEC50−Xh where h is the Hill Slope.

PRMT7 = molecular target: T2, PRMT7 (Homo sapiens, UniProt Q9NVM4); assay: CBH-002 affinity curve, HEK293, PRMT7-NL fusion; format: cell-based; design: BRET, CBH-002 + DMSO / BRET, CBH-002 + GSK3326595: unit not given here; conditions: for BRET, CBH-002 + DMSO / BRET, CBH-002 + GSK3326595: Figure S2C PRMT7-NL, log([CBH-002])
T2 construct: host or cells: HEK293
T2 sequence (Q9NVM4 1-692): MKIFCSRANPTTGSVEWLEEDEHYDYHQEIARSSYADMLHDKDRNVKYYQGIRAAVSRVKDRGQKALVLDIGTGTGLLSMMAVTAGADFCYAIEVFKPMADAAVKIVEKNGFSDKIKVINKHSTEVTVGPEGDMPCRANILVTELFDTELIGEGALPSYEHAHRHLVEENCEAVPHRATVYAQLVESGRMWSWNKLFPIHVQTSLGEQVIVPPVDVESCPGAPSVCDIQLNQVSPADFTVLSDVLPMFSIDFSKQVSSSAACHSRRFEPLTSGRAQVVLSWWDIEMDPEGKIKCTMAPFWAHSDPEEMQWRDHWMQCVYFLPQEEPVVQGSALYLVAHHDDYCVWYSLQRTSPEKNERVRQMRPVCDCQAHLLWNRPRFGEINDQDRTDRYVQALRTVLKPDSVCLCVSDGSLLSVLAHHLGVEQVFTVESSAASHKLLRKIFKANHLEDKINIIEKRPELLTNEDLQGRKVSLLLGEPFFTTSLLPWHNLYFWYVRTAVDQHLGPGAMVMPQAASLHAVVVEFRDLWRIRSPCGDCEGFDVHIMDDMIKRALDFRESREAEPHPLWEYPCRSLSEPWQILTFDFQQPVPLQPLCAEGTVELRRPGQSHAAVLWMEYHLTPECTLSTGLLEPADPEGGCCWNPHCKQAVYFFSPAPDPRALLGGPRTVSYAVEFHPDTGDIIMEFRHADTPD
Experimental: as §1, §2

BRET, CBH-002 + DMSO (NL-PRMT5; uM 0.04576): 20.5721 and 25.8738 and 18.388
BRET, CBH-002 + GSK3326595 (NL-PRMT5; uM 0.04576): 1.809 and 2.429 and 2.181
BRET, CBH-002 + DMSO (NL-PRMT5; uM 0.52288): 24.1037 and 25.1393 and 24.5832
BRET, CBH-002 + GSK3326595 (NL-PRMT5; uM 0.52288): 4.538 and 4.814 and 4.399
BRET, CBH-002 + DMSO (NL-PRMT5; uM 1): 34.4603 and 46.2115 and 36.0512
BRET, CBH-002 + GSK3326595 (NL-PRMT5; uM 1): 12.5442 and 11.3355 and 11.5115
BRET, CBH-002 + DMSO (NL-PRMT5; uM -0.43136): 17.1332 and 19.3006 and 16.5836
BRET, CBH-002 + GSK3326595 (NL-PRMT5; uM -0.43136): 1.767 and 1.79 and 1.327
BRET, CBH-002 + DMSO (NL-PRMT5; uM -0.90849): 13.1405 and 15.4187 and 12.8329
BRET, CBH-002 + GSK3326595 (NL-PRMT5; uM -0.90849): 0.7756 and 0.9895 and 1.006
BRET, CBH-002 + DMSO (NL-PRMT5; uM -1.20952): 13.3172 and 13.6477 and 14.1021
BRET, CBH-002 + GSK3326595 (NL-PRMT5; uM -1.20952): 0.6778 and 0.9377 and 0.9652
BRET, CBH-002 + DMSO (NL-PRMT5; uM -1.68664): 10.4832 and 12.4293 and 10.2869
BRET, CBH-002 + GSK3326595 (NL-PRMT5; uM -1.68664): 1.144 and 1.071 and 1
BRET, CBH-002 + DMSO (NL-PRMT5; uM -1.98767): 7.5477 and 8.773 and 6.804
BRET, CBH-002 + GSK3326595 (NL-PRMT5; uM -1.98767): 0.4652 and 0.5599 and 0.5695
BRET, CBH-002 + DMSO (NL-PRMT5; uM -2.46479): 4.066 and 4.851 and 4.778
BRET, CBH-002 + DMSO (NL-PRMT5; uM -2.94191): 2.639 and 2.5785 and 2.4252
BRET, CBH-002 + DMSO (PRMT7; uM 0.04576): 3.118 and 3.169 and 3.222
BRET, CBH-002 + GSK3326595 (PRMT7; uM 0.04576): 2.264 and 3.024 and 2.623
BRET, CBH-002 + DMSO (PRMT7; uM 0.52288): 4.4157 and 4.315 and 4.82
BRET, CBH-002 + GSK3326595 (PRMT7; uM 0.52288): 4.289 and 4.449 and 4.432
BRET, CBH-002 + DMSO (PRMT7; uM 1): 6.788 and 6.4376 and 8.0011
BRET, CBH-002 + GSK3326595 (PRMT7; uM 1): 6.64 and 6.225 and 5.521
BRET, CBH-002 + DMSO (PRMT7; uM -0.43136): 2.545 and 2.3934 and 2.684
BRET, CBH-002 + GSK3326595 (PRMT7; uM -0.43136): 2.418 and 2.903 and 2.394
BRET, CBH-002 + DMSO (PRMT7; uM -0.90849): 2.174 and 2.245 and 2.2
BRET, CBH-002 + GSK3326595 (PRMT7; uM -0.90849): 2.014 and 2.113 and 2.172
BRET, CBH-002 + DMSO (PRMT7; uM -1.20952): 2.33 and 1.992 and 2.793
BRET, CBH-002 + GSK3326595 (PRMT7; uM -1.20952): 1.945 and 2.184 and 2.019
BRET, CBH-002 + DMSO (PRMT7; uM -1.68664): 2.292 and 2.046 and 2.033
BRET, CBH-002 + GSK3326595 (PRMT7; uM -1.68664): 2.038 and 1.973 and 2.006
BRET, CBH-002 + DMSO (PRMT7; uM -1.98767): 1.964 and 2.061 and 2.054
BRET, CBH-002 + GSK3326595 (PRMT7; uM -1.98767): 1.921 and 2.272 and 1.954
BRET, CBH-002 + DMSO (PRMT7; uM -2.46479): 2.032 and 2.041 and 2.0419
BRET, CBH-002 + GSK3326595 (PRMT7; uM -2.46479): 2.119 and 2.05 and 2.0804
BRET, CBH-002 + DMSO (PRMT7; uM -2.94191): 1.985 and 2.058 and 2.072
BRET, CBH-002 + GSK3326595 (PRMT7; uM -2.94191): 1.954 and 1.961 and 1.971
CBH-002 engagement at PRMT7 (PRMT7; HEK293, PRMT7-NL): did not show engagement
Compound: O=C(CCc1ccc2n1[B-](F)(F)[N+]1=C(c3ccc[nH]3)C=CC1=C2)NCCCCC(=O)N1CCC(Nc2cc(C(=O)NC[C@H](O)CN3CCc4ccccc4C3)ncn2)CC1 [CBH-002]
